Results from ChEMBL document CHEMBL1145159 (J Med Chem, 2005).
pIC50: −log10 of the molar value. Peptide text beside a SMILES is read from it.

Assays:
[1] = biological target: Neuronal acetylcholine receptor subunit alpha-9 (Homo sapiens, UniProt Q9UGM1); test: Inhibitory concentration against Nicotinic acetylcholine receptor alpha9; Range is 100-200 nM
[2] = biological target: T1, Neuronal acetylcholine receptor subunit alpha-7 (Homo sapiens, UniProt P36544); test: Inhibitory concentration against Nicotinic acetylcholine receptor alpha7; Range is 100-200 nM
T1 sequence (P36544 whole entry): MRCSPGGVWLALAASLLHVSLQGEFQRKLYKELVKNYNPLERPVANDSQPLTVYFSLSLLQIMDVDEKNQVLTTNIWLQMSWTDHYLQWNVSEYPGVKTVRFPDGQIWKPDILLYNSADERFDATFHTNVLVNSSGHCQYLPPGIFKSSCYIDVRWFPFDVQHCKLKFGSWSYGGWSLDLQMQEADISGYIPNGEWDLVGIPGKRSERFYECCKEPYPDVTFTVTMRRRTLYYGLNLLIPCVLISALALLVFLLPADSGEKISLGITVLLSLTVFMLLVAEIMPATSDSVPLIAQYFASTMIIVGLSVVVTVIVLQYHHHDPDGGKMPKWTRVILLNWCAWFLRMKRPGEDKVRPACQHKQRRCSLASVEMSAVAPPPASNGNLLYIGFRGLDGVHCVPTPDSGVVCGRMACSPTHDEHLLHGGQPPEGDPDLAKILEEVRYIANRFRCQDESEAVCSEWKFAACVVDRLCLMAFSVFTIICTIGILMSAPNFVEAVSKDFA

[3] = biological target: T2, Neuronal acetylcholine receptor; alpha3/beta4 (Homo sapiens, UniProt P30926+P32297); test: Inhibitory concentration against Nicotinic acetylcholine receptor alpha3-beta4; Range is 100-200 nM; assay type: protein-complex assay
T2 sequence (P30926 whole entry): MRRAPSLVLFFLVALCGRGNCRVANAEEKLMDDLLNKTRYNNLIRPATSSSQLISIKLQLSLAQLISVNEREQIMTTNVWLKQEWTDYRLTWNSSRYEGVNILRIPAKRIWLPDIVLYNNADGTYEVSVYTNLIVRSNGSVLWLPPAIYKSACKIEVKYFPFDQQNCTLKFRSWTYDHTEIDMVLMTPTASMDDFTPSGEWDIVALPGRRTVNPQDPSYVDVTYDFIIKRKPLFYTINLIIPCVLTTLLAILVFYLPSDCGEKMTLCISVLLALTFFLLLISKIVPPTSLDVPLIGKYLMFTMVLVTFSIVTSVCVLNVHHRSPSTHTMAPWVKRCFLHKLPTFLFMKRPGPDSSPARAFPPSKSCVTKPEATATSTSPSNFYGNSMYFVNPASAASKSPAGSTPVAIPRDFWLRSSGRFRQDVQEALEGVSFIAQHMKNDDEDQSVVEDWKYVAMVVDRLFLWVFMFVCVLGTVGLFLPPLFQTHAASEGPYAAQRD
T2 sequence (P32297 whole entry): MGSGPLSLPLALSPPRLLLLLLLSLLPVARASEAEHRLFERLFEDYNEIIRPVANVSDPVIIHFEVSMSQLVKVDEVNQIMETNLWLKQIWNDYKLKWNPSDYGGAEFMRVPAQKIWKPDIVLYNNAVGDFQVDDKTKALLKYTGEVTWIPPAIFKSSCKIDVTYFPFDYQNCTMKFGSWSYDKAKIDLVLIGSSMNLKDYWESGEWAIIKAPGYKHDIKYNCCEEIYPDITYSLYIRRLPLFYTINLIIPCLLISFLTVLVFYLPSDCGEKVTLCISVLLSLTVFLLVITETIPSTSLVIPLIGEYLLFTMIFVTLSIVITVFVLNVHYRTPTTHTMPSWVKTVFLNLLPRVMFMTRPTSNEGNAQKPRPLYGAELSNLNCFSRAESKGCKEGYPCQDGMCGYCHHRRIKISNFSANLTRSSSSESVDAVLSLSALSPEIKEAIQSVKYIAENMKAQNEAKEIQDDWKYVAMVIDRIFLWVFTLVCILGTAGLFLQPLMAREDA

[4] = biological target: Neuronal acetylcholine receptor; alpha4/beta2 (Homo sapiens, UniProt P17787+P43681); test: Inhibitory concentration against Nicotinic acetylcholine receptor alpha4-beta2; Range is 0.3-1.5 nM; assay type: protein-complex assay
Chain of Neuronal acetylcholine receptor; alpha4/beta2 (P17787 whole entry): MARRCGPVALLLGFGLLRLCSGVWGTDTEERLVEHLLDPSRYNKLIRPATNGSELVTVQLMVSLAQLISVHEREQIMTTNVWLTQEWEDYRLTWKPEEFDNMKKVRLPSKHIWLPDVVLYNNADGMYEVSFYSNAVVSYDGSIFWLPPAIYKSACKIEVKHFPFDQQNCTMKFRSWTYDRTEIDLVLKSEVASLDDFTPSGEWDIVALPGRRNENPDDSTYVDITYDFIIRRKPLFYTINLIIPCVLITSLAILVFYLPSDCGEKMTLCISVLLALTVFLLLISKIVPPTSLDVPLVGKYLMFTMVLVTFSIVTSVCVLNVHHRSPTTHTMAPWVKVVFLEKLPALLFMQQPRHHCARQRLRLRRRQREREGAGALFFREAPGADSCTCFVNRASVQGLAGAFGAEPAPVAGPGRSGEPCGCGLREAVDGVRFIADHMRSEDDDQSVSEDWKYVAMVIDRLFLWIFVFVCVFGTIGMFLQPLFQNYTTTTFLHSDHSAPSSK
Chain of Neuronal acetylcholine receptor; alpha4/beta2 (P43681 whole entry): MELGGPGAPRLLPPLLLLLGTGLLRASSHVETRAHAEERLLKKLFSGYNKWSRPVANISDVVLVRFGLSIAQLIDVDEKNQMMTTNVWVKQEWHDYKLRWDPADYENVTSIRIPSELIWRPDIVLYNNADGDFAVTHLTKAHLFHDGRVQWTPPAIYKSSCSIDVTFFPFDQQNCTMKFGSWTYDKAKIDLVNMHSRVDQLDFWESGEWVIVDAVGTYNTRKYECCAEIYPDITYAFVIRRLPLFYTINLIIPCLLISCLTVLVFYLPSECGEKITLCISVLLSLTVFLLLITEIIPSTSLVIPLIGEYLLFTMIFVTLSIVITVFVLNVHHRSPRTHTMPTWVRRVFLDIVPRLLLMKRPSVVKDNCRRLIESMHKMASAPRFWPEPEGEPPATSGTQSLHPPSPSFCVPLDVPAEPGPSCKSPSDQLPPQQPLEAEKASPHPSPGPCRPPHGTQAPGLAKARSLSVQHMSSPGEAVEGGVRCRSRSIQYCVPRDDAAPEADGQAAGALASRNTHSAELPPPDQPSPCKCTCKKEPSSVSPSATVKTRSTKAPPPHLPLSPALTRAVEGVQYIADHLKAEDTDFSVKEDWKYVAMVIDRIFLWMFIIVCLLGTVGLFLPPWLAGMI

[5] = biological target: Neuronal acetylcholine receptor; alpha2/beta2 (Homo sapiens, UniProt P17787+Q15822); test: Inhibitory concentration against Nicotinic acetylcholine receptor alpha2-beta2; Range is 0.3-1.5 nM; assay type: protein-complex assay
Chain of Neuronal acetylcholine receptor; alpha2/beta2 (P17787 whole entry): as the sequence (P17787 whole entry) above
Chain of Neuronal acetylcholine receptor; alpha2/beta2 (Q15822 whole entry): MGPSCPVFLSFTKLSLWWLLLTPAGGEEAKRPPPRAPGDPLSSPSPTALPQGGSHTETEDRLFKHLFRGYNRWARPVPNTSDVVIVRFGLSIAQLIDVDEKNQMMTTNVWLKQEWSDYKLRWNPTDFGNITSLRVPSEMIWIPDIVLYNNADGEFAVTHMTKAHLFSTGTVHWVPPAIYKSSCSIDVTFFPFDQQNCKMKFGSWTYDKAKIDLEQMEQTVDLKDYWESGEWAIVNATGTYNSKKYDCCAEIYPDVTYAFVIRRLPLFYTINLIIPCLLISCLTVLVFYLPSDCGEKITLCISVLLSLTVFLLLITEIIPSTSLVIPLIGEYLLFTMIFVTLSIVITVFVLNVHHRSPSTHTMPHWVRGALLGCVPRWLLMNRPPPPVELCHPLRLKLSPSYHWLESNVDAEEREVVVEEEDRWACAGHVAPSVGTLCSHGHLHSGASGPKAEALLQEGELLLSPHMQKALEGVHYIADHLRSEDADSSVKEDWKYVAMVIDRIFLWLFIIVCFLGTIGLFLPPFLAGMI

[6] = biological target: Neuronal acetylcholine receptor; alpha2/beta4 (Homo sapiens, UniProt P30926+Q15822); test: Inhibitory concentration against Nicotinic acetylcholine receptor alpha2-beta4; Range is 0.3-1.5 nM; assay type: protein-complex assay
Chain of Neuronal acetylcholine receptor; alpha2/beta4 (P30926 whole entry): as the sequence (P30926 whole entry) above
Chain of Neuronal acetylcholine receptor; alpha2/beta4 (Q15822 whole entry): as the sequence (Q15822 whole entry) above

[7] = biological target: T1, Neuronal acetylcholine receptor subunit alpha-7; test: Inhibitory concentration against Nicotinic acetylcholine receptor alpha7; Range is 0.3-1.5 nM
[8] = biological target: T2, Neuronal acetylcholine receptor; alpha3/beta4; test: Inhibitory concentration against Nicotinic acetylcholine receptor alpha3-beta4; Range is 0.3-1.5 nM; assay type: protein-complex assay
[9] = biological target: Neuronal acetylcholine receptor; alpha3/beta2 (Homo sapiens, UniProt P17787+P32297); test: Inhibitory concentration against Nicotinic acetylcholine receptor alpha3-beta2; Range is 0.3-1.5 nM; assay type: protein-complex assay
Chain of Neuronal acetylcholine receptor; alpha3/beta2 (P17787 whole entry): as the sequence (P17787 whole entry) above
Chain of Neuronal acetylcholine receptor; alpha3/beta2 (P32297 whole entry): as the sequence (P32297 whole entry) above

[10] = biological target: Neuronal acetylcholine receptor; alpha4/beta4 (Homo sapiens, UniProt P30926+P43681); test: Inhibitory concentration against Nicotinic acetylcholine receptor alpha4-beta4; Range is 0.3-1.5 nM; assay type: protein-complex assay
Chain of Neuronal acetylcholine receptor; alpha4/beta4 (P30926 whole entry): as the sequence (P30926 whole entry) above
Chain of Neuronal acetylcholine receptor; alpha4/beta4 (P43681 whole entry): as the sequence (P43681 whole entry) above

[11] = Inhibitory concentration against Nicotinic acetylcholine receptor alpha 6/alpha-3-beta-4; Range is 0.3-1.5 nM; design: species or system Homo sapiens
[12] = Inhibitory concentration against Nicotinic acetylcholine receptor alpha-6-alpha-3-beta-2; Range is 0.3-1.5 nM; design: species or system Homo sapiens

Chain of Neuronal acetylcholine receptor subunit alpha-9 (Q9UGM1 whole entry): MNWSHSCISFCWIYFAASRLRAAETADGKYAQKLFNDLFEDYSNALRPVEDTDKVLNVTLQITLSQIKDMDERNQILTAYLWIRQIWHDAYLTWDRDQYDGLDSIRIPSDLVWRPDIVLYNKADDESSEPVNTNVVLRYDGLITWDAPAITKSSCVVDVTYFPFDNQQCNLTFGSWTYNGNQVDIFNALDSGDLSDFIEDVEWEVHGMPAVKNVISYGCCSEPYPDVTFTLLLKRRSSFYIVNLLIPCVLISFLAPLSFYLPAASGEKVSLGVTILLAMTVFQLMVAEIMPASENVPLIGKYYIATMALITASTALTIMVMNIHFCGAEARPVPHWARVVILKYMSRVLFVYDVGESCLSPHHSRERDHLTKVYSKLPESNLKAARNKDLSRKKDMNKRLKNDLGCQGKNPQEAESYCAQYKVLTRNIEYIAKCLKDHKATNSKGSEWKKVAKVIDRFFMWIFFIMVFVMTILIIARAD

With `C[C@H](NC(=O)[C@H](CS)NC(=O)[C@H](CCCN=C(N)N)NC(=O)[C@@H]1CCCN1C(=O)[C@H](CC(=O)O)NC(=O)[C@H](CO)NC(=O)[C@H](CS)NC(=O)[C@H](CS)NC(=O)CN)C(=O)N[C@@H](Cc1c[nH]c2ccccc12)C(=O)N[C@@H](CCCN=C(N)N)C(N)=O` (H-GCCSDPRCAWR-NH2) the pIC50 [1] was 6.70, the pIC50 [2] was 6.70 and the pIC50 [3] was 6.70.
In the case of `CC(C)C[C@H](NC(=O)[C@@H](NC(=O)[C@H](C)NC(=O)[C@H](CS)NC(=O)[C@@H]1CCCN1C(=O)[C@@H]1CCCN1C(=O)[C@@H](NC(=O)[C@H](CO)NC(=O)[C@H](CS)NC(=O)[C@H](CS)NC(=O)CN)[C@@H](C)O)C(C)C)C(=O)N[C@@H](Cc1ccc(O)cc1)C(=O)N[C@@H](CS)C(=O)NCC(=O)N[C@@H](CCCNC(=N)N)C(=O)N[C@@H](CCCNC(=N)N)C(=O)N[C@H](C=O)CCCNC(=N)N` (H-GCCSTPPCAVLYCGRRR-aldehyde), the pIC50 [4] was 8.82, the pIC50 [5] was 8.82 and the pIC50 [6] was 8.82. For the same compound, the pIC50 [7] was 8.82, the pIC50 [8] was 8.82 and the pIC50 [9] was 8.82. For the same compound, the pIC50 [10] was 8.82.
With `CC(C)C[C@H](NC(=O)[C@@H](NC(=O)[C@H](C)NC(=O)[C@H](CS)NC(=O)[C@@H]1CCCN1C(=O)[C@@H]1CCCN1C(=O)[C@@H](NC(=O)[C@H](CO)NC(=O)[C@H](CS)NC(=O)[C@H](CS)NC(=O)CN)[C@@H](C)O)C(C)C)C(=O)N[C@@H](Cc1ccc(O)cc1)C(=O)N[C@@H](CS)C(=O)NCC(=O)N[C@@H](CCCN=C(N)N)C(=O)N[C@@H](CCCN=C(N)N)C(=O)N[C@H](C=O)CCCN=C(N)N` (H-GCCSTPPCAVLYCGRRR-aldehyde) the pIC50 [11] was 8.82 and the pIC50 [12] was 8.82.
